Laboratory results published in patent publication US20240252486A1, “ALGOSTATIC AGENTS FOR PREVENTING TRANSITION FROM ACUTE TO CHRONIC PAIN” (The Regents of the University of California, priority 2021, published 2024).

What was measured:
formalin-injected mice [1] = assay: Formalin-induced chronic pain-like state (CPLS): persistent hypersensitivity to heat and mechanical stimuli; format: in vivo, mouse
formalin-injected mice [2] = assay: Formalin-induced paw edema; format: in vivo, mouse
Experimental: Paw edema was measured with a digital caliper (Fisher Scientific, USA) and is expressed as the difference (A paw thickness, mm) between ipsilateral and contralateral paws.

formalin-injected mice [3] = assay: Conditioned place preference (spontaneous/ongoing pain) after formalin; format: in vivo, mouse; conditions: ARN19702 30 mg-kg^−1 IP once daily for 3 days starting 24 h after formalin; PFD14
Experimental: Preconditioning: 12 days after tissue damage, mice were placed in the two chamber CPP apparatus (for details see (63)) and the time spent in each chamber was recorded for 10 min and analyzed to determine preconditioning baseline.
Conditioning: Mice underwent single trial conditioning 24 h after preconditioning using a biased approach. In the morning of the conditioning day, animals received saline and were immediately placed into the preferred chamber (saline paired) of the CPP box for 30 min, with no access to the other chambers. Approximately 4 h later, mice received gabapentin (50 mg-kg^−1, IP) and were immediately confined in the non-preferred chamber for 30 min (gabapentin paired).
Preference test: On the test day (POD14 or PFD14), 12 h after the afternoon pairing, mice were placed back into the center of the CPP chambers with free access to all chambers for 10 min. Time (s) spent in each chamber was recorded and evaluated by a blind observer to determine preference.

formalin-injected mice [4] = assay: Ex vivo diffusion tensor imaging of spinal cord and forebrain; format: in vivo, mouse; conditions: ARN19702 30 mg-kg^−1 IP once daily for 3 days starting 24 h after formalin; PFD14
Experimental: Magnetic Resonance Imaging (MRI) acquisition: Mice were anesthetized, flushed intracardially with ice-cold PBS and then with 4% PAF in PBS (pH 7.4). Brains and spinal cords were removed within their osseous structures and post-fixed overnight in 4% PAF, followed by three 5-min washes with PBS the next day, and stored in PBS (pH 7.4) containing sodium azide (0.02%, weight) at 4 °C. Ex vivo diffusion tensor imaging (DTI) and T2 weighted imaging ([…]) studies were performed using a 9.4 T Bruker Avance imager (Bruker Biospin, Billerica, USA). Data were acquired with the following parameters: 1.5 cm field of view, 0.5 mm slice thickness, and a 128×128 acquisition matrix and zero filled to 256×256. DTI parameters were as follows: repetition time (TR)/echo time (TE)=8000 ms/35.66 ms, 30 isolinear directions, B=[…], and 5 B0 images acquired prior to weighted images. […] parameters were TR/TE=4000/10 ms with 10 equally spaced echoes. Brain: We used 3D automatic registration for unbiased region parcellation to analyze DTI metrics in brain structures. Scans underwent eddy current correction and brain was digitally removed from surrounding skull and muscles using 3D Pulse-Coupled Neural Networks (PCNN3D v1.2) in MATLAB R2017a (MathWorks). […] The resultant maps were then analyzed in DSI studio (http://dsi-studio.labsolver.org). […]

[5] = test system: spinal-cord transcription; assay: RNA sequencing and metabolomic analysis of L4-L6 spinal cord; format: in vivo, mouse; conditions: systemic ARN19702 administration on PFD2-3
Experimental: RNA sequencing and bioinformatics analysis: We extracted total RNA with the RNeasy Mini Kit (Qiagen). Samples with RNA integrity number ≥8.5 were kept for library construction. cDNA synthesis, amplification, library construction, and sequencing were performed at Novogene (Bejing, China) using the Illumina NovaSeq platform with paired-end 150 bp (PE 150) sequencing strategy. Downstream analysis was performed using a combination of programs including STAR, HTseq, Cufflink and Novogene's wrapped scripts. Alignments were parsed using the STAR program and differential expressions were determined using DESeq2/edgeR. Gene Ontology (GO) and Kyoto Encyclopedia of Genes and Genomes (KEGG) enrichment were implemented using the ClusterProfiler.
Metabolomic analysis: Metabolomics analyses were performed at the West Coast Metabolomics Center of the University of California Davis, as described^55. Briefly, frozen lumbar spinal cord (L4-L6) fragments (˜5 mg) were homogenized in Eppendorf tubes (2 ml) for 2 min using metal spheres ([…] diameter) in a MM300 mill (Retsch, Germany). A mixture of isopropanol/acetonitrile/water (3/3/2, vol) was added to the grounded tissue (1 ml per 20 mg), stirred for 10 s and shaken at 4° C. for 5 min. […]

naïve animals = assay: Baseline nociceptive thresholds in naïve animals; format: in vivo, mouse; conditions: ARN19702 30 mg-kg^−1 IP, ARN16186 10 mg-kg^−1 IP
[6] = as effectively as does ARN077; cited from earlier work
formalin-injected mice [7] = assay: Formalin test: acute nocifensive behavior; conditions: pretreatment; ARN16186 10 mg-kg^−1 IP, ARN19702 30 mg-kg^−1 IP; wild-type mice, 1% formalin
[8] = pretreatment, ARN16186 10 mg-kg^−1 IP, ARN19702 30 mg-kg^−1 IP, wild-type mice, 1% formalin

**Q.** For `CCS(=O)(=O)c1ccccc1C(=O)N1CCN(c2nc3ccc(F)cc3s2)C[C@@H]1C` [ARN19702], which “protection from CPLS consolidation” value (formalin-injected mice [1]; ARN19702 30 mg-kg^−1 IP given on PFD1 or PFD5 to PFD9) is on record?
**A.** no such effect

**Q.** And the “protection from CPLS consolidation” value (formalin-injected mice [1]; ARN19702 30 mg-kg^−1 IP given on PFD2)?
**A.** partially effective

**Q.** What about the “protection from CPLS consolidation” value (formalin-injected mice [1]; ARN19702 30 mg-kg^−1 IP given once on PFD3 or PFD4) of the same compound?
**A.** full protection

**Q.** And the “sex dependence of the protective effects (contralateral hyperalgesia in female mice)” value (formalin-injected mice [1]; ARN19702 30 mg-kg^−1 IP once daily PFD1 to PFD3)?
**A.** not sex-dependent

**Q.** And the CPLS consolidation (formalin-injected mice [1]; ARN19702 30 mg-kg^−1 IP once daily for 3 consecutive days starting 24 h after formalin, male mice)?
**A.** effectively halted

**Q.** And the “evoked hypersensitivity (sensory responses)” value (formalin-injected mice [1]; ARN19702 30 mg-kg^−1 IP once daily for 3 days starting 24 h after formalin, male mice)?
**A.** normalizing

**Q.** And the “pain behaviors (acute effect)” value (formalin-injected mice [1]; ARN19702 30 mg-kg^−1 IP, at all time points PFD1 to PFD9)?
**A.** temporarily attenuated

**Q.** And the “transition to CPLS in PPAR-α-null mice” value (formalin-injected mice [1]; ARN19702 30 mg-kg^−1 IP, Ppara^−/− mice, PFD14)?
**A.** unaffected

**Q.** What about the “persistent hypersensitivity (CPLS) elicited by formalin” value (formalin-injected mice [1]; post-injury intrathecal infusion, 30 ng, 5 μL, at PFD2 and PFD4, assessed PFD14) of the same compound?
**A.** stopped

**Q.** And the “NAAA-null phenotype (weakened nocifensive response, no inflammation or persistent hypersensitivity after formalin)” value (formalin-injected mice [1]; pretreatment of wild-type mice, ARN19702 30 mg-kg^−1 IP, ARN16186 10 mg-kg^−1 IP)?
**A.** recapitulated

**Q.** What about the “persistent contralateral hyperalgesia (PFD14)” value (formalin-injected mice [1]; [8]) of the same compound?
**A.** prevents

**Q.** And the “paw edema (PFD14)” value (formalin-injected mice [2]; [8])?
**A.** prevents

**Q.** What about the paw edema (formalin-injected mice [2]; three-day ARN19702 regimen (30 mg-kg^−1 IP) after formalin, PFD14) of the same compound?
**A.** no detectable influence

**Q.** What about the ongoing pain (formalin-injected mice [3]) of the same compound?
**A.** normalizing

**Q.** And the “CPLS-associated changes in spinal and forebrain DTI measures” value (formalin-injected mice [4])?
**A.** reversing

**Q.** And the “transcriptional and metabolic changes in L4-L6 spinal cord on the following day” value [5]?
**A.** prevented the appearance

**Q.** And the baseline nociceptive thresholds (naïve animals)?
**A.** Neither compound affected

**Q.** What about the “nociceptive behavior evoked by formalin or CCI” value [6] of the same compound?
**A.** suppresses

**Q.** And the “nocifensive response to formalin” value (formalin-injected mice [7])?
**A.** prevents
